From US20260315763A1, “OLFACTORY DELIVERY OF THERAPEUTIC PEPTIDES” (Rocket Science Health Corp., priority 2023, published 2026)
“Also recorded” adds a separate entry of the source.

Key:
[1] = Visualizing olfactory cleft delivery with methylene blue (nasal endoscopy); type: in vivo, human (healthy participants)
From the text: The primary goal of these studies is to visualize delivery to the olfactory cleft (first with technetium-99, and then with methylene blue). The device was tuned to eject the fluid at a specific velocity. This velocity was chosen based on the viscosity of the fluid and the studies in Example 1, to maximize the extent of laminar flow.
Visualizing Olfactory Cleft Delivery with Methylene Blue
Participants: Five healthy participants (ages 19+) with no history of sinonasal symptoms and no evidence of nasal inflammation were recruited for this study. Prior to recruitment of participants study procedures were approved by Providence Health Care research ethics board, (British Columbia, Canada) and conducted under Health Canada Investigational Testing Authorization #314993. All participants were assessed by a licensed otolaryngologist physician to confirm their eligibility. Participants completed two study visits during which a licensed otolaryngologist physician administered 0.1 mL of the visual dye tracer, methylene blue.
Study Design: During the first visit, the methylene blue was administered using the Laminar Fluid Ejection method (1.5 mm cannula; velocity=4.5 m/s). During the second visit, methylene blue was administered using a conventional nasal spray device (Pharma systems Item #10272, UPC: 063636802714). The Pharma systems spray device was used in these experiments because it was the device normally used by the compounding pharmacy for intranasal delivery. It was the device patients and clinicians were used to at this clinic.
Following delivery, the physician used a nasal endoscope to image the deposition of methylene blue to the olfactory cleft at up to five time points (1, 5, 8, 12, and 15 minutes following delivery). From each image, the physician judged whether at least 50% of the methylene blue fluid was delivered to the olfactory cleft. If <50% of the methylene blue was judged to have deposited in the olfactory cleft, imaging was stopped and that session's trial was completed.

inferior temporal gyrus = assay: fMRI region of interest analysis: mean ALFF in inferior temporal gyrus; type: in vivo, human (participants); details: both olfactory delivery and spray conditions; 80 IU; baseline, 15, 60 min
From the text: (§1) Participants: Eight participants (male and female, ages 23-30) were recruited for this study from the New Brunswick area. Participants reported no history of abnormal nasal or sinus symptoms, insulin use, diabetes, metabolic disorder, or any complicating medical conditions, or contraindications for nasal cannulation, MRI or venous blood sampling. Additionally, participants reported no previous diagnosis of SARS-COV-2 with symptoms of anosmia. Study procedures were approved by Horizon Health Network's Human Research Protection Program prior to recruitment of participants.
(§2) Study Design: An open-label 4-arm crossover study design was used to understand the insulin brain effects between the focal deposition (cannula) and the standard nasal mister method. Undiluted solution of 80 IU (0.16 ml) prepared from U500 insulin was delivered to the olfactory region (condition A). Under this condition, 40 IU (0.08 ml) of human insulin was delivered directly by an ENT physician to each nostril. For condition B, undiluted solution containing 15% MucoLox (a thickening agent) and 80 IU (0.16 ml) insulin was delivered to the olfactory region. For condition C, a total of 1.6 ml insulin and sterile water mixture was prepared for Nasal spray delivery. The nasal spray bottle contained 80 IU of U500 insulin mixed with a sterile water solution. […]

[2] = test system: prefrontal and posterior brain regions; assay: fMRI control analysis: ALFF in spray condition across Blocks 1 and 2; type: in vivo, human (participants); details: insulin without MucoLox, 80 IU
From the text: as §1, §2

[3] = test system: anterior division of the cingulate gyrus; assay: fMRI region of interest analysis: mean ALFF in anterior division of the cingulate gyrus; type: in vivo, human (participants); details: both olfactory delivery and spray conditions; 80 IU; baseline, 15, 60 min
From the text: as §1, §2

[4] = test system: prefrontal brain activity; assay: Insulin delivery fMRI analysis: ALFF, prefrontal brain activity; type: in vivo, human (participants)
From the text: In the in-human studies below, the device was tuned to eject the fluid at a specific velocity. This velocity was chosen based on the viscosity of the fluid and the studies described in Example 1, to maximize the extent of laminar flow.
as §1
Study Design: An open-label 4-arm crossover study design was used to understand the insulin brain effects between the focal deposition (cannula) and the standard nasal mister method. Undiluted solution of 80 IU (0.16 ml) prepared from U500 insulin was delivered to the olfactory region (condition A). Under this condition, 40 IU (0.08 ml) of human insulin was delivered directly by an ENT physician to each nostril. For condition B, undiluted solution containing 15% MucoLox (a thickening agent) and 80 IU (0.16 ml) insulin was delivered to the olfactory region. For condition C, a total of 1.6 ml insulin and sterile water mixture was prepared for Nasal spray delivery. The nasal spray bottle contained 80 IU of U500 insulin mixed with a sterile water solution. The spray was delivered over 4 minutes with two puffs per nostril every minute. Condition sequences AC, CA, BC, and CB comprise the 4 arms of the study.
Participants were randomly assigned to one of two blocks. In Block 1, participants were randomly assigned by alternating sequence to one of the A arms (AC or CA). […] In Block 2, participants were randomly assigned by alternating sequence to one of the B arms (BC or CB). Block 2 participants did receive MucoLox in the cannula session. For a given participant, appointments for each condition were scheduled at a minimum of 14 days apart to ensure no carry-over effects from the previous condition.
MRI Acquisition: Magnetic resonance imaging was completed at an imaging clinic in Moncton (Moncton MRI) using standard sequences on a 3T Siemens Skyra, VD13. Anatomical T1-weighted MPRAGE images were acquired for each subject [TR=1900 ms, TE=2.99 ms, Flip Angle=9 degrees, Voxel Size=0.45×0.45×0.9 mm, Dimensions=448×512×160]. Resting state functional T2*-weighted BOLD images [TR=2600 ms, TE=30 ms, Flip Angle=90 degrees, Voxel Size=3×3×3 mm, Dimensions=80×80×45] were acquired for each subject at baseline and again 15 minutes and 60 minutes following intranasal delivery of insulin. Each resting state functional scan consisted of 180 volumes acquired over the course of 7 minutes and 48 seconds.
MRI Preprocessing: MRI data was preprocessed using fMRIPrep. Preprocessing steps of the anatomical images included correction for intensity nonuniformity, skull stripping, segmentation of gray matter, white matter, and cerebrospinal fluid (CSF) masks, and normalization to MNI template space. Preprocessing steps for the functional images included slice time correction, head motion correction (calculation of framewise displacement and 6-degrees of motion parameters and their temporal derivatives), registration to the subjects T1w image, normalization to MNI template space, and spatial smoothing (3 mm FWHM Gaussian kernel).
fMRI Denoising: Functional MRI data were denoised using a standard denoising pipeline implemented in the CONN Toolbox (v 22.a) and SPM (v 12.7). […]

CN(C)c1ccc2nc3ccc(=[N+](C)C)cc-3sc2c1 [Methylene Blue, methylene blue]
participants with successful delivery of >50% of the methylene blue to the olfactory cleft ([1]; Laminar Fluid Ejection method, 0.1 mL): Four of the five participants | delivery of at least 50% of the dye to the olfactory cleft ([1]; conventional nasal spray, each of the five participants): failed to deliver at least 50% of the dye to the olfactory cleft | Olfactory Residence Time ([1]; participant 2.01, LFE Method, 0.1 mL, 1 attempt): 15 min | Olfactory Residence Time ([1]; participant 2.01, Nasal Spray, 0.1 mL, 1 attempt): 0 min | Olfactory Residence Time ([1]; participant 2.02, LFE Method, 0.1 mL, 2 attempts): 8 min | Olfactory Residence Time ([1]; participant 2.02, Nasal Spray, 0.1 mL, 1 attempt): 0 min | Olfactory Residence Time ([1]; participant 2.03, LFE Method, 0.1 mL, 1 attempt): 5 min | Olfactory Residence Time ([1]; participant 2.03, Nasal Spray, 0.1 mL, 1 attempt): 0 min | Olfactory Residence Time ([1]; participant 2.04, LFE Method, 0.1 mL, 5 attempts): 0 min | Olfactory Residence Time ([1]; participant 2.04, Nasal Spray, 0.1 mL, 1 attempt): 0 min | Olfactory Residence Time ([1]; participant 2.05, LFE Method, 0.1 mL, 1 attempt): 1 min | Olfactory Residence Time ([1]; participant 2.05, Nasal Spray, 0.1 mL, 1 attempt): 0 min

insulin: Undiluted solution of 80 IU (0.16 ml) prepared from U500 insulin; spray: 80 IU of U500 insulin mixed with a sterile water solution
ALFF over time, inferior temporal gyrus (inferior temporal gyrus): increased over time; also recorded: increase in ALFF for both conditions | brain activity, Block 2 compared to Block 1 participants ([2]; 15 minutes): increased brain activity in prefrontal cortex and reduced brain activity in posterior brain regions | brain activity, Block 2 compared to Block 1 participants ([2]; 60 minutes): decreased brain activity in select prefrontal and posterior regions | ALFF over time, anterior division of the cingulate gyrus [3]: decreased over time; also recorded: decrease in ALFF in both the olfactory delivery and spray conditions | prefrontal brain activity compared to baseline ([4]; 80 IU intranasal insulin, scans after receiving insulin (15 and 60 minutes)): decreased prefrontal brain activity compared to baseline scans | decrease in prefrontal brain activity, olfactory delivery device compared to spray mister ([4]; 80 IU, olfactory delivery device vs traditional spray mister): larger and longer-lasting decrease in prefrontal brain activity | prefrontal deactivation, olfactory delivery device compared to spray device ([4]; Block 1 (insulin without MucoLox), 80 IU): greater and more sustained | reduction in prefrontal brain activity, olfactory delivery compared to spray ([4]; Block 1, 80 IU, 60 minutes): even more intense in the olfactory delivery condition | change in prefrontal brain activity compared to baseline ([4]; Block 1, both spray and olfactory delivery device, 80 IU, 15 minutes): reduction in brain activity in prefrontal regions | change in prefrontal brain activity compared to baseline ([4]; Block 1, olfactory delivery device, 80 IU, 15 minutes, compared to insulin with MucoLox (Block 2)): this reduction is greater in the absence of MucoLox | change in prefrontal brain activity compared to baseline ([4]; Block 2, spray mister, 80 IU, 15 minutes): small decrease of prefrontal brain activity | change in prefrontal brain activity compared to baseline ([4]; Block 2, spray mister, 80 IU, 60 minutes): remained deactivated | reduction in prefrontal brain activity, spray condition compared to olfactory delivery with MucoLox ([4]; Block 2, spray, 80 IU, 60 minutes): more intense in the spray condition | duration of reduction of brain activity after delivery ([4]; delivery of insulin using the method disclosed (olfactory delivery)): at least 60 minutes | deactivation of the prefrontal cortex, olfactory delivery device compared to spray mister ([4]; intranasal delivery of insulin, 80 IU, overall conclusion): deactivation of the prefrontal cortex to a greater degree | deactivation of prefrontal cortex, insulin alone compared to insulin with MucoLox ([4]; olfactory delivery device, 80 IU): greater, longer lasting deactivation of prefrontal cortex | reduction in prefrontal brain activity, Block 1 compared to Block 2 (MucoLox) ([4]; olfactory delivery device, 80 IU, 60 minutes): more intense in Block 1 participants who did not receive MucoLox
